# Measurements: patent US20140301980A1, “METHODS FOR THE TREATMENT OF PSORIATIC ARTHRITIS USING APREMILAST” (CELGENE CORPORATION, priority 2013, published 2014)
# Tests used:
# [1] = test system: adult patients with active PsA; experiment: Phase III clinical study PALACE 1 in active psoriatic arthritis; format: in vivo, human; conditions: for Patients achieving remission, DAS28(CRP) less than 2.6: N=168; for Physician's global assessment of disease activity, % Change (percent improvement) / Subject's assessment of pain, % Change (percent improvement) / Subject's global assessment of disease activity, % Change (percent improvement): VAS; for Number of swollen joints, % Change (percent improvement): scale 0-76; for Number of tender joints, % Change (percent improvement): scale 0-78; for Proportion of patients with ACR 20 response / Proportion of patients with ACR 50 response / Proportion of patients with ACR 70 response: N = 168
# Experimental: (§1) The safety and efficacy of apremilast was evaluated in three multi-center, randomized, double-blind, placebo-controlled trials (Studies PALACE 1, PALACE 2, and PALACE 3) of similar design. A total of 1493 adult patients with active PsA (≧3 swollen joints and ≧3 tender joints) despite prior or current treatment with disease-modifying antirheumatic drug (DMARD) therapy were randomized. […] One qualifying psoriatic skin lesion of at least 2 cm in diameter was required in PALACE 3. Previous treatment with a biologic, including TNF-blockers was allowed.
# (§2) Across the 3 studies, patients were randomly assigned to placebo (n=496), apremilast 20 mg (n=500), or apremilast 30 mg (n=497) given orally twice daily. Patients were allowed to receive stable doses of concomitant methotrexate (MTX) (≦25 mg/week), sulfasalazine (SSZ) (≦2 g/day), leflunomide (LEF) (≦20 mg/day), low dose oral corticosteroids (equivalent to ≦10 mg of prednisone a day), and/or nonsteroidal anti-inflammatory drugs (NSAIDs) during the trial. Treatment assignments were stratified based on small-molecule DMARD use at baseline. The patients who were therapeutic failures of >3 agents for PsA (small molecules or biologics), or >1 biologic TNF blocker were excluded.
# (§3) The primary endpoint was the percentage of patients achieving American College of Rheumatology (ACR) 20 response at Week 16. Placebo-controlled efficacy data were collected and analyzed through Week 24. Patients with each subtype of PsA were enrolled across the 3 studies, including symmetric polyarthritis (62.0%), asymmetric oligoarthritis (26.9%), distal interphalangeal (DIP) joint arthritis (6.2%), arthritis mutilans (2.7%), and predominant spondylitis (2.1%). The median duration of PsA disease was 5 years. Patients received concomitant therapy with at least one DMARD (65.2%), MTX (54.5%), SSZ (9.0%), LEF (7.4%), low dose oral corticosteroids (13.9%), and NSAIDs (70.7%). Prior treatment with small-molecule DMARDs only was reported in 76.4% of patients and prior treatment with biologic DMARDs was reported in 22.4% of patients.
# [2] = test system: adult patients with active PsA; experiment: Phase III clinical study PALACE 3 in active psoriatic arthritis (PASI-75); format: in vivo, human; conditions: patients with psoriatic involvement of at least three percent BSA
# Experimental: as §1
# Across the 3 studies, patients were randomly assigned to placebo (n=496), apremilast 20 mg (n=500), or apremilast 30 mg (n=497) given orally twice daily. Patients were allowed to receive stable doses of concomitant methotrexate (MTX) (≦25 mg/week), sulfasalazine (SSZ) (≦2 g/day), leflunomide (LEF) (≦20 mg/day), low dose oral corticosteroids (equivalent to ≦10 mg of prednisone a day), and/or nonsteroidal anti-inflammatory drugs (NSAIDs) during the trial. […]
# The primary endpoint was the percentage of patients achieving American College of Rheumatology (ACR) 20 response at Week 16. Placebo-controlled efficacy data were collected and analyzed through Week 24. […]
# Patients with psoriatic involvement of at least three percent body surface area (BSA) were evaluated for Psoriatic Area and Severity Index (PASI)-75 responses. […]
# [3] = test system: adult patients with active PsA; experiment: Phase III clinical studies PALACE 1-3, study not specified; format: in vivo, human
# Experimental: as §1, §2, §3
# [4] = test system: patients with psoriatic arthritis (PsA); experiment: Phase II randomized, double-blind, placebo controlled, multicenter clinical study in psoriatic arthritis; conditions: for Subjects reporting a serious AE (SAE): 12 week study period
# Experimental: A phase II, randomized, double-blind, placebo controlled, multicenter clinical study was performed in North America and Europe in patients with psoriatic arthritis (PsA). […] Mean duration of PsA was 7.8 years; mean tender joint count of 22, mean swollen joint count of 10 at baseline (Moll & Wright criteria). […] Stable doses of NSAIDs, corticosteroids (≦10 mg/day prednisone or equivalent), and methotrexate were allowed.
structure (smiles),measurement,setting,value
"CCOc1cc([C@@H](CS(C)(=O)=O)N2C(=O)c3cccc(NC(C)=O)c3C2=O)ccc1OC [apremilast, (+)-2-[1-(3-ethoxy-4-methoxyphenyl)-2-methylsulfonylethyl]-4-acetylaminoisoindoline-1,3-dione]",Proportion of HAQ-DI responders (≧0.3 change from baseline) compared to placebo,[1]; Week 16,greater proportion
same,"Patients achieving remission, DAS28(CRP) less than 2.6","[1]; Week 16, 30 mg BID with or without DMARDs",13.1%
same,"CRP, % Change (percent improvement)","[1]; Week 16, 30 mg BID ± DMARDs",12.40%
same,"HAQ-DI score, % Change (percent improvement)","[1]; Week 16, 30 mg BID ± DMARDs",20.00%
same,"Physician's global assessment of disease activity, % Change (percent improvement)","[1]; Week 16, 30 mg BID ± DMARDs",42.31%
same,"Subject's assessment of pain, % Change (percent improvement)","[1]; Week 16, 30 mg BID ± DMARDs",26.00%
same,"Subject's global assessment of disease activity, % Change (percent improvement)","[1]; Week 16, 30 mg BID ± DMARDs",20.29%
same,"Number of swollen joints, % Change (percent improvement)","[1]; Week 16, 30 mg BID ± DMARDs",50.00%
same,"Number of tender joints, % Change (percent improvement)","[1]; Week 16, 30 mg BID ± DMARDs",43.17%
same,ACR 20 response rate,"[1]; Week 16, apremilast alone (29/62 patients)",46.8%
same,ACR 20 response rate,"[1]; Week 16, biologic-naive patients, concomitant with DMARD (51/124 patients)",41.1%
same,ACR 20 response rate,"[1]; Week 16, concomitant with DMARD (35/106 patients)",33.0%
same,ACR 20 response rate,"[1]; Week 16, previously treated with small molecule and/or biologic DMARD (11/41 patients)",26.8%
same,Proportion of patients with ACR 20 response,"[1]; Week 16, ± DMARDs",38.1%
same,Proportion of patients with ACR 50 response,"[1]; Week 16, ± DMARDs",16.1%
same,Proportion of patients with ACR 70 response,"[1]; Week 16, ± DMARDs",4.2%
same,ACR 20 response rate,"[1]; Week 24, 30 mg BID for up to 24 weeks, independent of response at Week 16",43.5%
same,"Patients achieving remission, DAS28(CRP) less than 2.6","[1]; Week 24, 30 mg BID with or without DMARDs",19.0%
same,"CRP, % Change (percent improvement)","[1]; Week 24, 30 mg BID ± DMARDs",8.45%
same,"HAQ-DI score, % Change (percent improvement)","[1]; Week 24, 30 mg BID ± DMARDs",20.00%
same,"Physician's global assessment of disease activity, % Change (percent improvement)","[1]; Week 24, 30 mg BID ± DMARDs",35.90%
same,"Subject's assessment of pain, % Change (percent improvement)","[1]; Week 24, 30 mg BID ± DMARDs",27.67%
same,"Subject's global assessment of disease activity, % Change (percent improvement)","[1]; Week 24, 30 mg BID ± DMARDs",23.92%
same,"Number of swollen joints, % Change (percent improvement)","[1]; Week 24, 30 mg BID ± DMARDs",50.00%
same,"Number of tender joints, % Change (percent improvement)","[1]; Week 24, 30 mg BID ± DMARDs",44.83%
same,Proportion of patients with ACR 20 response,"[1]; Week 24, ± DMARDs",35.1%
same,Proportion of patients with ACR 50 response,"[1]; Week 24, ± DMARDs",19.0%
same,Proportion of patients with ACR 70 response,"[1]; Week 24, ± DMARDs",10.1%
same,Change in mean HAQ-DI score from baseline,"[1]; baseline to Week 16, p=0.0017 vs placebo",−0.244
same,Proportion of patients achieving PASI-75,"[2]; Week 16, 30 BID",22.2%
same,Proportion of patients achieving PASI-75,"[2]; Week 24, 30 BID",25.6%
same,"Mental Component Summary score (MCS), mean change from baseline","[3]; human, in vivo",No worsening
same,"SF-36v2 physical functioning domain and physical component summary score, change from baseline compared to placebo","[3]; human, in vivo",greater improvement
same,Dactylitis and enthesitis,[3]; patients with pre-existing dactylitis or enthesitis,improvement
same,Discontinuations due to AEs,[4]; 20 mg BID,9%
same,Discontinuations due to lack of efficacy,[4]; 20 mg BID,7%
same,Subjects reporting a serious AE (SAE),[4]; 20 mg BID,4 subjects
same,"Primary endpoint, ACR20 at 12 weeks",[4]; 20 mg BID,met
same,ACR20 at 24 weeks,"[4]; 20 mg BID, evaluable subjects, 24 weeks",40%
same,Discontinuations due to AEs,[4]; 40 mg QD,6%
same,Discontinuations due to lack of efficacy,[4]; 40 mg QD,0%
same,Subjects reporting a serious AE (SAE),[4]; 40 mg QD,0 subjects
same,"Primary endpoint, ACR20 at 12 weeks",[4]; 40 mg QD,met
same,ACR20 at 24 weeks,"[4]; 40 mg QD, evaluable subjects, 24 weeks",39.1%
same,Subjects reporting an SAE in the extension,"[4]; active-drug extension, weeks 12-24",7 subjects
same,ACR20 at 24 weeks,[4]; placebo subjects switched to 20 mg BID in the extension,35%
same,ACR20 at 24 weeks,[4]; placebo subjects switched to 40 mg QD in the extension,40%
same,Deaths,[4]; whole study,no deaths
